Measured values: patent US12077555B2, “STAT degraders and uses thereof” (Kymera Therapeutics, Inc., priority 2019, dated 2024)
Where two headings read alike, the source gives them in different places.

Target: STAT3 (Homo sapiens, UniProt P40763)
Test: STAT3 HiBiT degradation assay in transfected A549 cells
Type: cell-based
Design: expressed in transfected cells; host or cells: A549
Method: Compound preparation and Cell seeding: The transfected A549 cells were harvested from dish into cell culture medium and cell numbers counted. Cells were diluted with culture medium to the desired density and 30 μL of cell suspension (about 2000 cells/well) were added into each well of a 384-well cell culture plate as designated and transferred into 37° C. 5% CO2 incubator for 24 h. Compounds were dissolved to 10 mM stock solution and 12 μL of the stock solution was transferred to a 384 LDV-plate. 3 fold, 10-point dilution was performed by transferring 4 μL compound into 8 μL DMSO using a TECAN (EVO200) liquid handler. 30 μL of diluted compound from compound source plate was transferred into the cell plate as designated by using Echo550 and transferred into 37° C. 5% CO2 incubator for 24 h.
Detection: Plates were removed from incubators and equilibrated at room temperature for 15 minutes. Nano-Glo Hibit Lytic Detection reagent (Promega Cat #N3040) was thawed and equilibrated to room temperature before the experiment. 30 μL of Nano-Glo Hibit Lytic Detection reagent was added into each well to be detected. The plates were held at room temperature for 10 min followed by reading on EnSpire.
Data analysis: The remaining activity was calculated following the formula: Remaining Activity (%)=100%×(Lumsample−LumNC)/(LumPC−LumNC). Calculate the IC50 by fitting the curve using Xlfit (v5.3.1.3), equation 201: fit=(A+((B−A)/(1+((x/C)^D)))); A: Bottom; B: Top; C: IC50; and D: Slope.
The letter codes for STAT3 DC50 include: A (<0.01 μM), B (0.01-0.1 μM), C (0.1-1.0 μM), and D (>1.0 μM).

[1] = A549, 24 h; read-out: STAT3 HiBiT A549 degradation 24 h: Average external-Abs DC50

Chain of STAT3 (P40763 whole entry): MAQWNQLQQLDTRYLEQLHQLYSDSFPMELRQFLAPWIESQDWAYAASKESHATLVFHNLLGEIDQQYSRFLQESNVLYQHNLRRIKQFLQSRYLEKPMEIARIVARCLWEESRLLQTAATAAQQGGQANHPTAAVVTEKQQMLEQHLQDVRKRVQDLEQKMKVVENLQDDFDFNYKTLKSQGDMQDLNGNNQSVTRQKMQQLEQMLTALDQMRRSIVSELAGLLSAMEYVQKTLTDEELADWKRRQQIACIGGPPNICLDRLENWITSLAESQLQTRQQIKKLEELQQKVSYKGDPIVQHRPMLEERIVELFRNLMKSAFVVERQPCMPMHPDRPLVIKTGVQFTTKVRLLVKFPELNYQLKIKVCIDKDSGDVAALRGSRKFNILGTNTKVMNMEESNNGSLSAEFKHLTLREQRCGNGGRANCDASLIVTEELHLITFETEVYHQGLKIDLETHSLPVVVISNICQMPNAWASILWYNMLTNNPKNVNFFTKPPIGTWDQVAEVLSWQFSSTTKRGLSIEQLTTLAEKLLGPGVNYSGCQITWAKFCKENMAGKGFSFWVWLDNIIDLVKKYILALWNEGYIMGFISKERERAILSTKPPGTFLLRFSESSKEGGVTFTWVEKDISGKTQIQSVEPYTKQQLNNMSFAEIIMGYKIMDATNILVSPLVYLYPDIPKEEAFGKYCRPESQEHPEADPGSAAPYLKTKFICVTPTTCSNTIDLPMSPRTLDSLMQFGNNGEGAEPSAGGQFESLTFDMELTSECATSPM

`CN1C(=O)CCC(N2Cc3c(C#CCCCCCC(=O)N4CC[C@H]5CC[C@@H](C(=O)N[C@@H](CCC(N)=O)C(=O)NC(c6ccccc6)c6ccccc6)N5C(=O)[C@@H](NC(=O)c5cc6cc(C(=O)P(=O)(O)O)ccc6[nH]5)C4)cccc3C2=O)C1=O` (stereo in doubt) [Compound I-120, diammonium 2-[[(5S,8S,10aR)-8-[[(1S)-3-carbamoyl-1-(diphenylmethylcarbamoyl)propyl]carbamoyl]-3-[8-[2-(1-methyl-2,6-dioxopiperidin-3-yl)-1-oxo-3H-isoindol-4-yl]oct-7-ynoyl]-6-oxo-octahydropyrrolo[1,2-a][1,5]diazocin-5-yl]carbamoyl]-1H-indole-5-carbonylphosphonate] gave a DC50 (read-out: STAT3 HiBiT A549 degradation 24 h: Average external-Abs DC50; A549, 24 h) greater than 1000 nM.
In the case of `C/C(=C\C(=O)N[C@H]1CCc2cccc3c2N(C1=O)[C@H](C(=O)N[C@@H](CCC(N)=O)[C@@H](C)OCc1ccc(CCCCC(=O)N[C@H](C(=O)N2C[C@@H](O)C[C@H]2C(=O)NCc2ccc(-c4scnc4C)cc2)C(C)(C)C)cc1)C3)c1ccc(C(F)(F)P(=O)(O)O)cc1` [Compound I-119], the DC50 [1] is reported as greater than 1000 nM.
`Cc1ncsc1-c1ccc(CNC(=O)[C@@H]2C[C@H](O)CN2C(=O)[C@@H](NC(=O)CCCCc2ccc(CO[C@H](C)[C@H](CCC(N)=O)NC(=O)[C@@H]3Cc4cccc5c4N3C(=O)[C@@H](NC(=O)c3cc4cc(C(=O)P(=O)(O)O)ccc4[nH]3)CC5)cc2)C(C)(C)C)cc1` [Compound I-121, diammonium 2-[[(2S,11S)-2-[[(3S,4R)-1-carbamoyl-4-[[4-(4-[[(2S)-1-[(2S,4S)-4-hydroxy-2-([[4-(4-methyl-1,3-thiazol-5-yl)phenyl]methyl]carbamoyl)pyrrolidin-1-yl]-3,3-dimethyl-1-oxobutan-2-yl]carbamoyl]butyl)phenyl]methoxy]pentan-3-yl]carbamoyl]-12-oxo-1-azatricyclo[6.4.1.0^[4,13]]trideca-4(13),5,7-trien-11-yl]carbamoyl]-1H-indole-5-carbonylphosphonate] gave a DC50 [1] greater than 1000 nM.
With `Cn1c(=O)n(C2CCC(=O)NC2=O)c2cccc(CCCC(=O)N3CC[C@H]4CC[C@@H](C(=O)N[C@@H](CCC(N)=O)C(=O)NC(c5ccccc5)c5ccccc5)N4C(=O)[C@@H](NC(=O)c4cc5cc(C(=O)P(=O)(O)O)ccc5[nH]4)C3)c21` (stereo partly drawn) [Compound I-122, 2-[[(5S,8S,10aR)-8-[[(1S)-3-carbamoyl-1-(diphenylmethylcarbamoyl)propyL]carbamoyl]-3-[4-[1-(2,6-dioxopiperidin-3-yl)-3-methyl-2-oxo-1,3-benzodiazol-4-yl]butanoyl]-6-oxo-octahydropyrrolo[1,2-a][1,5]diazocin-5-yl]carbamoyl]-1H-indole-5-carbonylphosphonic acid] the DC50 [1] was greater than 1000 nM.
`Cn1c(=O)n(C2CCC(=O)NC2=O)c2cccc(CCCCCC(=O)N3CC[C@H]4CC[C@@H](C(=O)N[C@@H](CCC(N)=O)C(=O)NC(c5ccccc5)c5ccccc5)N4C(=O)[C@@H](NC(=O)c4cc5cc(C(=O)P(=O)(O)O)ccc5[nH]4)C3)c21` (stereo partly drawn) [Compound I-123, 2-[[(5S,8S,10aR)-8-[[(1S)-3-carbamoyl-1-(diphenylmethylcarbamoyl)propyl]carbamoyl]-3-[6-[1-(2,6-dioxopiperidin-3-yl)-3-methyl-2-oxo-1,3-benzodiazol-4-yl]hexanoyl]-6-oxo-octahydropyrrolo[1,2-a][1,5]diazocin-5-yl]carbamoyl]-1H-indole-5-carbonylphosphonic acid] showed a DC50 [1] greater than 1000 nM.
`Cn1c(=O)n(C2CCC(=O)NC2=O)c2cccc(CCCCCCC(=O)N3CC[C@H]4CC[C@@H](C(=O)N[C@@H](CCC(N)=O)C(=O)NC(c5ccccc5)c5ccccc5)N4C(=O)[C@@H](NC(=O)c4cc5cc(C(=O)P(=O)(O)O)ccc5[nH]4)C3)c21` (stereo partly drawn) [Compound I-124, 2-[[(5S,8S,10aR)-8-[[(1S)-3-carbamoyl-1-(diphenylmethylcarbamoyl)propyl]carbamoyl]-3-[7-[1-(2,6-dioxopiperidin-3-yl)-3-methyl-2-oxo-1,3-benzodiazol-4-yl]heptanoyl]-6-oxo-octahydropyrrolo[1,2-a][1,5]diazocin-5-yl]carbamoyl]-1H-indole-5-carbonylphosphonic acid] showed a DC50 [1] greater than 1000 nM.
For `Cn1c(=O)n(C2CCC(=O)NC2=O)c2cccc(CCCCCCCCC(=O)N3CC[C@H]4CC[C@@H](C(=O)N[C@@H](CCC(N)=O)C(=O)NC(c5ccccc5)c5ccccc5)N4C(=O)[C@@H](NC(=O)c4cc5cc(C(=O)P(=O)(O)O)ccc5[nH]4)C3)c21` (stereo partly drawn) [Compound I-125, 2-[[(5S,8S,10aR)-8-[[(1S)-3-carbamoyl-1-(diphenylmethylcarbamoyl)propyl]carbamoyl]-3-[9-[1-(2,6-dioxopiperidin-3-yl)-3-methyl-2-oxo-1,3-benzodiazol-4-yl]nonanoyl]-6-oxo-octahydropyrrolo[1,2-a][1,5]diazocin-5-yl]carbamoyl]-1H-indole-5-carbonylphosphonic acid], the DC50 [1] was 100 to 1000 nM.
In the case of `Cc1ncsc1-c1ccc(CNC(=O)[C@@H]2C[C@@H](O)CN2C(=O)[C@@H](NC(=O)CCc2ccc3ccc(CO[C@H](C)[C@H](CCC(N)=O)NC(=O)[C@@H]4Cc5cccc6c5N4C(=O)[C@@H](NC(=O)c4cc5cc(C(=O)P(=O)(O)O)ccc5[nH]4)CC6)cc3c2)C(C)(C)C)cc1` [Compound I-126], the DC50 [1] is reported as greater than 1000 nM.
For `Cc1ncsc1-c1ccc(CNC(=O)[C@@H]2C[C@@H](O)CN2C(=O)[C@@H](NC(=O)CCCc2ccc3cc(CO[C@H](C)[C@H](CCC(N)=O)NC(=O)[C@@H]4Cc5cccc6c5N4C(=O)[C@@H](NC(=O)c4cc5cc(C(=O)P(=O)(O)O)ccc5[nH]4)CC6)ccc3c2)C(C)(C)C)cc1` [Compound I-127, diammonium 2-[[(2S,11S)-2-[[(3S,4R)-1-carbamoyl-4-[[6-(3-[[(2S)-1-[(2S,4R)-4-hydroxy-2-([[4-(4-methyl-1,3-thiazol-5-yl)phenyl]methyl]carbamoyl)pyrrolidin-1-yl]-3,3-dimethyl-1-oxobutan-2-yl]carbamoyl]propyl)naphthalen-2-yl]methoxy]pentan-3-yl]carbamoyl]-12-oxo-1-azatricyclo[6.4.1.0^[4,13]]trideca-4(13),5,7-trien-11-yl]carbamoyl]-1H-indole-5-carbonylphosphonate], the DC50 [1] was 100 to 1000 nM.
`Cn1c(=O)n(C2CCC(=O)NC2=O)c2ccc(N3CCC(CCCC(=O)N4CC[C@H]5CC[C@@H](C(=O)N[C@@H](CCC(N)=O)C(=O)NC(c6ccccc6)c6ccccc6)N5C(=O)[C@@H](NC(=O)c5cc6cc(C(=O)P(=O)(O)O)ccc6[nH]5)C4)CC3)cc21` (stereo partly drawn) [Compound I-128, 2-[[(5S,8S,10aR)-8-[[(1S)-3-carbamoyl-1-(diphenylmethylcarbamoyl)propyl]carbamoyl]-3-(4-[1-[1-(2,6-dioxopiperidin-3-yl)-3-methyl-2-oxo-1,3-benzodiazol-5-yl]piperidin-4-yl]butanoyl)-6-oxo-octahydropyrrolo[1,2-a][1,5]diazocin-5-yl]carbamoyl]-1H-indole-5-carbonylphosphonic acid] was tested, and the DC50 [1] was 100 to 1000 nM.
For `Cc1ncsc1-c1ccc(CNC(=O)[C@@H]2C[C@@H](O)CN2C(=O)[C@@H](NC(=O)CCC/C=C/c2ccc(CO[C@H](C)[C@H](CCC(N)=O)NC(=O)[C@@H]3Cc4cccc5c4N3C(=O)[C@@H](NC(=O)c3cc4cc(C(=O)P(=O)(O)O)ccc4[nH]3)CC5)cc2)C(C)(C)C)cc1` [Compound I-129, diammonium 2-[[(2S,11S)-2-[[(3S,4R)-1-carbamoyl-4-([4-[(1E)-5-[[(2S)-1-[(2S,4R)-4-hydroxy-2-([[4-(4-methyl-1,3-thiazol-5-yl)phenyl]methyl]carbamoyl)pyrrolidin-1-yl]-3,3-dimethyl-1-oxobutan-2-yl]carbamoyl]pent-1-en-l-yl]phenyl]methoxy)pentan-3-yl]carbamoyl]-12-oxo-1-azatricyclo[6.4.1.0^[4,13]]trideca-4(13),5,7-trien-11-yl]carbamoyl]-1H-indole-5-carbonylphosphonate], the DC50 [1] was 100 to 1000 nM.
`Cc1ncsc1-c1ccc(CNC(=O)[C@@H]2C[C@@H](O)CC2C(=O)[C@@H](NC(=O)CC/C=C/c2ccc(CO[C@H](C)[C@H](CCC(N)=O)NC(=O)[C@@H]3Cc4cccc5c4N3C(=O)[C@@H](NC(=O)c3cc4cc(C(=O)P(=O)(O)O)ccc4[nH]3)CC5)cc2)C(C)(C)C)cc1` (stereo partly drawn) [Compound I-130, diammonium 2-[[(2S,11S)-2-[[(3S,4R)-1-carbamoyl-4-([4-[(1E)-4-[[(2S)-1-[(2S,4R)-4-hydroxy-2-([[4-(4-methyl-1,3-thiazol-5-yl)phenyl]methyl]carbamoyl)pyrrolidin-1-yl]-3,3-dimethyl-1-oxobutan-2-yl]carbamoyl]but-1-en-1-yl]phenyl]methoxy)pentan-3-yl]carbamoyl]-12-oxo-1-azatricyclo[6.4.1.0^[4,13]]trideca-4(13),5,7-trien-11-yl]carbamoyl]-1H-indole-5-carbonylphosphonate] gave a DC50 [1] greater than 1000 nM.
